{"source": "patent US12310973B2", "about": "“Administration and dosage of diaminophenothiazines” (WisTa Laboratories Ltd., priority 2016, dated 2025)", "system": "mild to moderate AD patients", "assay": "Phase 3 trial in mild to moderate AD: ADAS-cog change from baseline", "format": "in vivo, human", "source_text": "The co-primary efficacy outcomes were change from baseline in 11-item Alzheimer's Disease Assessment Scale—cognitive subscale (ADAS-cog) and the 23-item Alzheimer's Disease Cooperative Study Activities of Daily Living (ADCS-ADL). Magnetic resonance imaging (MRI) volumetry was chosen as the principal secondary outcome to support a potential effect on the rate of brain atrophy (Fox et al., 1997; Ridha et al., 2008). Change in Lateral Ventricular Volume (LVV), as measured by the Ventricular Boundary Shift Integral (VBSI), (Salloway et al., 2014) was chosen as the principal measure as it provides high-contrast boundaries for measurement and is less affected by motion artefacts than whole brain or smaller structures. Key supportive topographical measures (temporo-parietal (TPV) and hippocampal volume (HV)) are also reported.\nPatients were recruited at 115 sites across 16 countries between January 2013 and August 2014. Enrolment of approximately 833 patients was targeted, with 891 patients actually recruited, in order to obtain data on approximately 500 patients completing the study, assuming a 30-40% drop-out rate. […] Adult caregiver(s) were required to participate. Concomitant use of AChEIs and/or memantine was permitted, provided the patient had been taking the medication(s) for […], with no changes to the dosage for 26 weeks prior to screening. Concomitant use of serotonergic antidepressant medication was permitted, but patients were monitored closely using a targeted rating scale derived from 4 published diagnostic criteria (Alusik et al., 2014) due to a theoretical potential for serotonin syndrome (Ramsay et al., 2007). […] Because MT^+ in high doses can induce methaemoglobinaemia, subjects with glucose-6-phosphate dehydrogenase deficiency or who were otherwise at haematological risk were excluded. Other inclusion/exclusion criteria are provided in the Supplementary Materials.\nPatients were randomised at baseline to LMTM 75 mg b.i.d. or 125 mg b.i.d. (expressed as MT base equivalent) or control in a 3:3:4 ratio. The randomisation was stratified according to geographical region (3 levels: North America, Europe, rest of world), use of AD-labelled co-medications (2 levels, using or not using) and severity (2 levels, moderate MMSE 14-19 inclusive, mild MMSE 20-26 inclusive). Patients in the control arm received a dose of 4 mg b.i.d. to maintain blinding.\nADAS-cog and ADCS-ADL assessments were performed at baseline and every 13 weeks thereafter, with change at 65 weeks (the final on-treatment visit) the primary efficacy measures. These were repeated at the final off-treatment follow-up visit at Week 69. Secondary efficacy measures included Clinical Global Impression of Change (ADCS-CGIC, administered by an independent rater); MMSE, administered on screening and at Weeks 26, 52, 65 and 69. Brain MRI scans were performed at baseline/screening and every 13 weeks using a standardized protocol including volumetric 3D T1-weighted data consistent with ADNI recommendations, FLAIR, T2* Gradient Echo and T2-weighted sequences. Diffusion-Weighted Imaging was also available at screening in order to exclude patients with co-existing pathology that would lead to a diagnosis other than probable AD. Each site was first qualified ensuring standardised acquisition protocol, patient handling and data management. MRI data were centrally collected by Imaging Corelab (Bioclinica). Data were centrally reviewed by RadMD for eligibility and safety (Amyloid Related Imaging Abnormalities, or ARIA monitoring) on an on-going basis. Volumetric 3DT1 data were also reviewed centrally in order to measure (using a boundary shift integral (BSI) technique; Salloway et al., 2014) change in LVV as principal secondary outcome measure, and as exploratory endpoints temporo-parietal volume (TPV), whole brain volume (WBV) and hippocampal volume (HV, estimated as the mean of left and right) (Wischik et al., 2016). […]", "data": [{"smiles": "CN(C)c1ccc2c(c1)Sc1cc(N(C)C)ccc1N2", "note": "[LMTM, leuco-methythioninium bis(hydromethanesulfonate)]", "values": [{"measurement": "ADAS-cog treatment effect as % of the decline over 65 weeks seen in the control arm (mean±SE)", "setting": "75 mg b.i.d. monotherapy, 65 weeks", "value": "103%±23%"}, {"measurement": "ADAS-cog treatment effect as % of the decline over 65 weeks seen in the control arm (mean±SE)", "setting": "125 mg b.i.d. monotherapy, 65 weeks", "value": "83%±23%"}, {"measurement": "ADAS-cog, Estimate (change from baseline)", "setting": "Table 2 primary analysis, 65 weeks, covariates additive, control arm (LMTM 4 mg b.i.d.)", "value": 6.32, "unit": "ADAS-cog units"}, {"measurement": "ADAS-cog, Estimate (difference with respect to control)", "setting": "Table 2 primary analysis, 65 weeks, 75 mg b.i.d.", "value": "−0.02", "unit": "ADAS-cog units"}, {"measurement": "ADAS-cog, Estimate (difference with respect to control)", "setting": "Table 2 primary analysis, 65 weeks, 125 mg b.i.d.", "value": "−0.43", "unit": "ADAS-cog units"}, {"measurement": "ADAS-cog, Estimate (mean additive treatment benefit)", "setting": "Table 2 primary analysis, 65 weeks, patients not using AChEI/Mem (additive covariate)", "value": "−2.30", "unit": "ADAS-cog units"}, {"measurement": "ADAS-cog, Estimate (difference vs control)", "setting": "Table 3, AChEI/Mem as interaction term, 65 weeks, 75 mg b.i.d. + AChEI/Mem", "value": 1.02, "unit": "ADAS-cog units"}, {"measurement": "ADAS-cog, Estimate (difference vs control)", "setting": "Table 3, AChEI/Mem as interaction term, 65 weeks, 75 mg b.i.d. monotherapy", "value": "−6.25", "unit": "ADAS-cog units"}, {"measurement": "ADAS-cog, Estimate (difference vs control)", "setting": "Table 3, AChEI/Mem as interaction term, 65 weeks, 125 mg b.i.d. + AChEI/Mem", "value": 0.50, "unit": "ADAS-cog units"}, {"measurement": "ADAS-cog, Estimate (difference vs control)", "setting": "Table 3, AChEI/Mem as interaction term, 65 weeks, 125 mg b.i.d. monotherapy", "value": "−5.79", "unit": "ADAS-cog units"}, {"measurement": "ADAS-cog, Estimate (change from baseline)", "setting": "Table 3, AChEI/Mem as interaction term, 65 weeks, control arm (4 mg b.i.d.)", "value": 5.98, "unit": "ADAS-cog units"}, {"measurement": "ADAS-cog, Estimate (change from baseline)", "setting": "Table 4 post-hoc, control-arm subjects, 4 mg b.i.d. + AChEI/Mem", "value": 6.79, "unit": "ADAS-cog units"}, {"measurement": "ADAS-cog, Estimate (difference)", "setting": "Table 4 post-hoc, control-arm subjects, 4 mg b.i.d. monotherapy vs 4 mg b.i.d. + AChEI/Mem", "value": "−5.90", "unit": "ADAS-cog units"}, {"measurement": "ADAS-cog, Estimate (change from baseline)", "setting": "Table 7, mild AD, 4 mg b.i.d. + AChEI/Mem (control-arm subjects)", "value": 3.24, "unit": "ADAS-cog units"}, {"measurement": "ADAS-cog, Estimate (difference)", "setting": "Table 7, mild AD, 4 mg b.i.d. alone vs 4 mg b.i.d. + AChEI/Mem", "value": "−6.41", "unit": "ADAS-cog units"}, {"measurement": "ADAS-cog, Estimate (difference)", "setting": "Table 7, mild AD, 75 mg b.i.d. alone vs control arm as randomised", "value": "−8.89", "unit": "ADAS-cog units"}, {"measurement": "ADAS-cog, Estimate (difference)", "setting": "Table 7, mild AD, 125 mg b.i.d. alone vs control arm as randomised", "value": "−5.03", "unit": "ADAS-cog units"}, {"measurement": "ADAS-cog, Estimate (change from baseline)", "setting": "Table 7, mild AD, control arm as randomised (4 mg b.i.d.)", "value": 2.27, "unit": "ADAS-cog units"}, {"measurement": "ADAS-cog, Estimate (change from baseline)", "setting": "Table 7, moderate AD, 4 mg b.i.d. + AChEI/Mem (control-arm subjects)", "value": 8.49, "unit": "ADAS-cog units"}, {"measurement": "ADAS-cog, Estimate (difference)", "setting": "Table 7, moderate AD, 4 mg b.i.d. alone vs 4 mg b.i.d. + AChEI/Mem", "value": "−4.74", "unit": "ADAS-cog units"}, {"measurement": "ADAS-cog, Estimate (difference)", "setting": "Table 7, moderate AD, 75 mg b.i.d. alone vs control arm as randomised", "value": "−2.01", "unit": "ADAS-cog units"}, {"measurement": "ADAS-cog, Estimate (difference)", "setting": "Table 7, moderate AD, 125 mg b.i.d. alone vs control arm as randomised", "value": "−5.75", "unit": "ADAS-cog units"}, {"measurement": "ADAS-cog, Estimate (change from baseline)", "setting": "Table 7, moderate AD, control arm as randomised (4 mg b.i.d.)", "value": 7.89, "unit": "ADAS-cog units"}, {"measurement": "ADAS-cog decline at 12 months (mean±se)", "setting": "control arm (LMTM 4 mg b.i.d.), 12 months", "value": "3.85±0.47"}, {"measurement": "Mean treatment benefit relative to control on ADAS-cog", "setting": "mild patients, LMTM monotherapy", "value": "240%±41%"}]}]}
